In ChEMBL document CHEMBL4308859, “Discovery of Novel Central Nervous System Penetrant Metabotropic Glutamate Receptor Subtype 2 (mGlu2) Negative Allosteric Modulators (NAMs) Based on Functionalized Pyrazolo[1,5- a]pyrimidine-5-carboxamide and Thieno[3,2- b]pyridine-5-carboxamide Cores” (J Med Chem, 2018):

Assays:
[1] = target: Metabotropic glutamate receptor 2 (Rattus norvegicus, UniProt P31421); assay: (§1) Negative allosteric modulation of rat mGlu2R expressed in HEK293 cells co-expressing Galpha15 assessed as decrease in glutamate-induced calcium mobilization preincubated for 2.3 mins followed by glutamate addition and measured after 1.7 mins by Fluo-4-AM dye based fluorescence assay; type: functional, cell-based
[2] = target: Metabotropic glutamate receptor 4 (Rattus norvegicus, UniProt P31423); assay: Negative allosteric modulation of rat mGlu4 receptor expressed in HEK cells harboring GIRK assessed as reduction in glutamate-induced thallium flux preincubated for 2.3 mins followed by glutamate addition measured after 2.6 mins by BTC-AM-dye based fluorescence assay; type: cell-based
[3] = target: Metabotropic glutamate receptor 8 (Rattus norvegicus, UniProt P70579); assay: Negative allosteric modulation of rat mGlu8 receptor expressed in HEK cells harboring GIRK assessed as reduction in glutamate-induced thallium flux preincubated for 2.3 mins followed by glutamate addition measured after 2.6 mins by BTC-AM-dye based fluorescence assay; type: cell-based
[4] = target: T1, Metabotropic glutamate receptor 1 (Homo sapiens, UniProt Q13255); assay: Negative allosteric modulation of human mGlu1R expressed in Trex293 cells assessed as decrease in glutamate-induced calcium mobilization preincubated for 2.3 mins followed by glutamate addition and measured after 2.6 mins by Fluo-4-AM dye based fluorescence assay; type: functional, cell-based
[5] = target: Metabotropic glutamate receptor 3 (Rattus norvegicus, UniProt P31422); assay: Negative allosteric modulation of rat mGlu3R expressed in Trex cells co-expressing Galpha15 assessed as decrease in glutamate-induced calcium mobilization preincubated for 2.3 mins followed by glutamate addition and measured after 2.6 mins by Fluo-4-AM dye based fluorescence assay; type: functional, cell-based
[6] = target: T2, Metabotropic glutamate receptor 6 (Homo sapiens, UniProt O15303); assay: Negative allosteric modulation of human mGlu6 receptor expressed in HEK cells harboring GIRK assessed as reduction in glutamate-induced thallium flux preincubated for 2.3 mins followed by glutamate addition measured after 2.6 mins by BTC-AM-dye based fluorescence assay; type: cell-based
[7] = Plasma clearance in Sprague-Dawley rat at 1 mg/kg, iv by LC-MS/MS analysis; type: ADME, organism-based
[8] = Fraction unbound in rat plasma after 4 hrs by equilibrium dialysis method; type: ADME, cell-free
[9] = Volume of distribution at steady state in Sprague-Dawley rat at 0.2 mg/kg, iv administered as cassette dose by LC-MS/MS analysis; type: ADME, organism-based; settings: in vivo, read-out: Vdss
[10] = Unbound brain to plasma ratio in Sprague-Dawley rat at 0.2 mg/kg, iv administered as cassette dose by LC-MS/MS analysis; type: ADME, organism-based; settings: brain and plasma, read-out: K(p,uu,brain)
[11] = target: Metabotropic glutamate receptor 2 (Rattus norvegicus) (UniProt P31421); assay: as §1, with “mobilization at 30 uM” for “mobilization”, “assay relative to control” for “assay”; type: functional, cell-based
[12] = Fraction unbound in human plasma after 4 hrs by equilibrium dialysis method; type: ADME, cell-free
[13] = Plasma clearance in Sprague-Dawley rat at 0.2 mg/kg, iv administered as cassette dose by LC-MS/MS analysis; type: ADME, organism-based
[14] = Volume of distribution at steady state in Sprague-Dawley rat at 1 mg/kg, iv by LC-MS/MS analysis; type: ADME, organism-based; settings: in vivo, read-out: Vdss
[15] = Fraction unbound in rat brain; type: ADME, tissue-based
[16] = target: Metabotropic glutamate receptor 7 (Rattus norvegicus, UniProt P35400); assay: Negative allosteric modulation of rat mGlu7 receptor expressed in HEK cells harboring GIRK assessed as reduction in […]-induced thallium flux preincubated for 2.3 mins followed by […] addition measured after 2.6 mins by BTC-AM-dye based fluorescence assay; type: cell-based
[17] = target: T3, Metabotropic glutamate receptor 5 (Homo sapiens, UniProt P41594); assay: Negative allosteric modulation of human mGlu5R expressed in Trex293 cells assessed as decrease in glutamate-induced calcium mobilization preincubated for 2.3 mins followed by glutamate addition and measured after 2.6 mins by Fluo-4-AM dye based fluorescence assay; type: functional, cell-based
[18] = Brain to plasma partition coefficient, Kp of the compound in Sprague-Dawley rat at 0.2 mg/kg, iv administered as cassette dose by LC-MS/MS analysis; type: ADME, organism-based; settings: brain and plasma
[19] = Half life in Sprague-Dawley rat at 0.2 mg/kg, iv administered as cassette dose by LC-MS/MS analysis; type: ADME, organism-based; settings: Sprague-Dawley, in vivo
[20] = Half life in Sprague-Dawley rat at 1 mg/kg, iv by LC-MS/MS analysis; type: ADME, organism-based; settings: in vivo
[21] = target: Metabotropic glutamate receptor 3 (Homo sapiens, UniProt Q14832); assay: Negative allosteric modulation of mGlu3R (unknown origin)
[22] = Brain to plasma partition coefficient, Kp of the compound in rat; type: ADME; settings: brain and plasma
[23] = target: Metabotropic glutamate receptor 8 (Homo sapiens, UniProt O00222); assay: Negative allosteric modulation of mGlu8R (unknown origin)
[24] = target: T1, Metabotropic glutamate receptor 1; assay: Negative allosteric modulation of mGlu1R (unknown origin)
[25] = target: Metabotropic glutamate receptor 4 (Homo sapiens, UniProt Q14833); assay: Negative allosteric modulation of mGlu4R (unknown origin)
[26] = target: T2, Metabotropic glutamate receptor 6; assay: Negative allosteric modulation of mGlu6R (unknown origin)
[27] = Plasma clearance in mouse; type: ADME, organism-based
[28] = target: T3, Metabotropic glutamate receptor 5; assay: Negative allosteric modulation of mGlu5R (unknown origin)
[29] = target: Metabotropic glutamate receptor 7 (Homo sapiens, UniProt Q14831); assay: Negative allosteric modulation of mGlu7R (unknown origin)

Chain of Metabotropic glutamate receptor 2 (Rattus norvegicus) (P31421 19-872 limits assumed): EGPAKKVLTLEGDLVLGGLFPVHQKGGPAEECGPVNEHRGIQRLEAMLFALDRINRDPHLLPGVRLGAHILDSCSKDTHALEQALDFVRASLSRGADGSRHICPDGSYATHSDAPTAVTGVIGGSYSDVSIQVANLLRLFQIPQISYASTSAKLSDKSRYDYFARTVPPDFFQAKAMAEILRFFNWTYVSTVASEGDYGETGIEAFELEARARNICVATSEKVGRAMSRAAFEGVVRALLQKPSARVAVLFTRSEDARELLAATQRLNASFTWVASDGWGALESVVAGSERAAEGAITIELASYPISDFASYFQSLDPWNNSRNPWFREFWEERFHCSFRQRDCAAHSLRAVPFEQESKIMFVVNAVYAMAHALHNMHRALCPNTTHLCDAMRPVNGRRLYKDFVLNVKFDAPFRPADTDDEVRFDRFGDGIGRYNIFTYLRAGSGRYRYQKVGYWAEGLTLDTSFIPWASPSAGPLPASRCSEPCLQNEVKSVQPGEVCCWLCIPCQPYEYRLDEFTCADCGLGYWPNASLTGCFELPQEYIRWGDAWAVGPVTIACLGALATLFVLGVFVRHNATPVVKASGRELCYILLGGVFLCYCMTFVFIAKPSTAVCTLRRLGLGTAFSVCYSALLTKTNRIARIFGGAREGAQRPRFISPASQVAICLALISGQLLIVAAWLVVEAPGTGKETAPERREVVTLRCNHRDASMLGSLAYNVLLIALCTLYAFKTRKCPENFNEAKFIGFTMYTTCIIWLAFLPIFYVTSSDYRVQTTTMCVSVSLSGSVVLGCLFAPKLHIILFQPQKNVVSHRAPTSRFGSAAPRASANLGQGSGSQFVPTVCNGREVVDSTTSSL
Chain of Metabotropic glutamate receptor 2 (P31421 whole entry): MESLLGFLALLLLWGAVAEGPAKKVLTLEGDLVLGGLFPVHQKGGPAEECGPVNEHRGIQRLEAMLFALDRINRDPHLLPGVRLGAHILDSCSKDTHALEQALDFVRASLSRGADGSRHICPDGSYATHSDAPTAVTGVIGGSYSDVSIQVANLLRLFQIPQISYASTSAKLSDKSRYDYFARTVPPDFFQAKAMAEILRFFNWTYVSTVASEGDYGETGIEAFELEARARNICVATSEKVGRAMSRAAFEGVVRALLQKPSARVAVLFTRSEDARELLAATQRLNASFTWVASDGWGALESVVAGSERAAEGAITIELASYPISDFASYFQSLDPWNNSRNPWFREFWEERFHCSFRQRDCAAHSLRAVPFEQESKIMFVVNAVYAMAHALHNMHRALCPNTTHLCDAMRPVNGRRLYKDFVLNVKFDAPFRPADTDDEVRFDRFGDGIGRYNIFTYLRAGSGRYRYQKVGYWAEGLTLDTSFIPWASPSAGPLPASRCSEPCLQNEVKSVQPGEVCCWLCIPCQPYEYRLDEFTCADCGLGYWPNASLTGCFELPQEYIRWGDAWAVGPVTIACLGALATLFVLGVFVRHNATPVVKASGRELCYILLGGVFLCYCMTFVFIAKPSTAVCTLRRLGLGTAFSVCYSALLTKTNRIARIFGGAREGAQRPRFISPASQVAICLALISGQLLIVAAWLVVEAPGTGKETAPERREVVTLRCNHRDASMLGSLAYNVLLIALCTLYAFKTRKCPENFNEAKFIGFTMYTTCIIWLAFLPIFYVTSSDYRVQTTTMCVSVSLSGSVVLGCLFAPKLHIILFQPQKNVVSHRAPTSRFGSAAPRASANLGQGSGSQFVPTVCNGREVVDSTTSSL
T2 sequence (O15303 whole entry): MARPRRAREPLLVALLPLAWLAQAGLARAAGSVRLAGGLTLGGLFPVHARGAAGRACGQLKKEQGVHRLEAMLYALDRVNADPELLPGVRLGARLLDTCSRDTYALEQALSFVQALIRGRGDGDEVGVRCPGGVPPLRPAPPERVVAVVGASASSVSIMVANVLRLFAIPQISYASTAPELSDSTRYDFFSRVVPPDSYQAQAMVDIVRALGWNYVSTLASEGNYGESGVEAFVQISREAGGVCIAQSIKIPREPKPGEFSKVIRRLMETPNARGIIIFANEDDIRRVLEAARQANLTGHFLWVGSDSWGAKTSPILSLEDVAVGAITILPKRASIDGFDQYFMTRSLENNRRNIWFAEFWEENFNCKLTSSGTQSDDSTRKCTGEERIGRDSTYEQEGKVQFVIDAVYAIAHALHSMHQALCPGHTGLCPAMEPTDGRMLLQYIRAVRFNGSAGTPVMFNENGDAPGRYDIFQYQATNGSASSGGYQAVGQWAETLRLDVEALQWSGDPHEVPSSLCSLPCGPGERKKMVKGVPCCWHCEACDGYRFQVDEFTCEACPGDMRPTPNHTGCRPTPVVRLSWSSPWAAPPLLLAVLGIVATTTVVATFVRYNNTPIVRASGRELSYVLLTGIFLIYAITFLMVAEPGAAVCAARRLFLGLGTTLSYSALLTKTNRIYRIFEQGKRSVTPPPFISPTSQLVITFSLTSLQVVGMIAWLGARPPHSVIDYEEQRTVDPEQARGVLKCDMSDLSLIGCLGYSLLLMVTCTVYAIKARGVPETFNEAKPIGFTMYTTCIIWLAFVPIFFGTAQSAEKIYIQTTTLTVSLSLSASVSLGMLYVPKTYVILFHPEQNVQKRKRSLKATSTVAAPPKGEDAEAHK
T3 sequence (P41594 whole entry): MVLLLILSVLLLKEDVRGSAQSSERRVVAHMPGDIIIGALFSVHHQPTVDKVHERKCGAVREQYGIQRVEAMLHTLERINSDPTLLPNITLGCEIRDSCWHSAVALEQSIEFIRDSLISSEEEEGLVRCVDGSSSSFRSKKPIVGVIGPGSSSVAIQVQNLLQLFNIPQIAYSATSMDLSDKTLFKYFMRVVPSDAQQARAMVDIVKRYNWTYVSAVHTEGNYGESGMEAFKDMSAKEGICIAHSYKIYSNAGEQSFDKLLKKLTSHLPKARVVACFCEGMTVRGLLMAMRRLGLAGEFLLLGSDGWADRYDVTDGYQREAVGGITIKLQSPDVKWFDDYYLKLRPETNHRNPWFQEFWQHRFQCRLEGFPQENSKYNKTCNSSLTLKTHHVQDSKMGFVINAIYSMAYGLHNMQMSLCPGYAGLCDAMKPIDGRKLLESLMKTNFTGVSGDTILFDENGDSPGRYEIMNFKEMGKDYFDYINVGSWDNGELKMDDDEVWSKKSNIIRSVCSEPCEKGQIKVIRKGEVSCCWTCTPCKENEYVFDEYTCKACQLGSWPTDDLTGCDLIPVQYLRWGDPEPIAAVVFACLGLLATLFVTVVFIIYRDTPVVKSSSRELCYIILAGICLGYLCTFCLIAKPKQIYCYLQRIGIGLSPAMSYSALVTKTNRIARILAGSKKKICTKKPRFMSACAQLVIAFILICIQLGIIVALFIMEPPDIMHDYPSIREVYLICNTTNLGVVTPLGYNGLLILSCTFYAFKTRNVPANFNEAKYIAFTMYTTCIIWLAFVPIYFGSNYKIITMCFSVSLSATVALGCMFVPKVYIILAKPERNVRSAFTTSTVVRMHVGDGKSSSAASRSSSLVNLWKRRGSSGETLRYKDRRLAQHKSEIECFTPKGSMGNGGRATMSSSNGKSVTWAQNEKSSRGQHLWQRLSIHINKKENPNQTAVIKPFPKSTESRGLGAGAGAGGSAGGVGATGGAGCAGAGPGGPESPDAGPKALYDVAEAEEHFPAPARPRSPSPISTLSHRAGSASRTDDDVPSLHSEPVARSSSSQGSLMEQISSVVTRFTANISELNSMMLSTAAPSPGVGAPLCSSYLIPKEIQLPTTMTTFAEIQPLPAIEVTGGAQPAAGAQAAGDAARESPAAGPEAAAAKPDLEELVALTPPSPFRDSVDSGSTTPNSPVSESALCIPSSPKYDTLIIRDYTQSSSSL
Chain of Metabotropic glutamate receptor 3 (Homo sapiens, UniProt Q14832) (Q14832 whole entry): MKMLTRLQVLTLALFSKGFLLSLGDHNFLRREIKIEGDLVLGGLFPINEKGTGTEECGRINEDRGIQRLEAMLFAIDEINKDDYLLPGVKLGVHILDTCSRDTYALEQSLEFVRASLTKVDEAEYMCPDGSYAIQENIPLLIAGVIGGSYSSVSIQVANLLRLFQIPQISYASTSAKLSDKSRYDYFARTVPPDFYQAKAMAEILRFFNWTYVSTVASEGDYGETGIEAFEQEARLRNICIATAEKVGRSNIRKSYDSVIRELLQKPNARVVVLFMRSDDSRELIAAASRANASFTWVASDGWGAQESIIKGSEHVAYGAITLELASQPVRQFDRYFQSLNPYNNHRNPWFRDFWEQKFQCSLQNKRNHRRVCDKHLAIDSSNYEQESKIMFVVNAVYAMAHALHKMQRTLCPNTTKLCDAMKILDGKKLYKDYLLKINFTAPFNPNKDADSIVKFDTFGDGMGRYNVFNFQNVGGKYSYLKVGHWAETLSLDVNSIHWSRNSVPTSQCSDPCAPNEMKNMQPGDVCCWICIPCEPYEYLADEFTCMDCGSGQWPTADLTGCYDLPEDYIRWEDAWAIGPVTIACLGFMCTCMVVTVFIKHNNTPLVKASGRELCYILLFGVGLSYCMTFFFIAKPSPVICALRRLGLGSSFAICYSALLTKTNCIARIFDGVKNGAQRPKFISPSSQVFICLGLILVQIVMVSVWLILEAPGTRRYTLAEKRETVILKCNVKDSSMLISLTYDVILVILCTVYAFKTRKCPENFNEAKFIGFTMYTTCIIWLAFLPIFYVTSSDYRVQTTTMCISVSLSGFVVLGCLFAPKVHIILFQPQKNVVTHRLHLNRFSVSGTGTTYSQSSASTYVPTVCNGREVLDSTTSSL

An IC50 [1] of 447 nM was found for `[2H]C([2H])([2H])Oc1ccc(-c2cc(C(N)=O)nc3cc(COc4cnc(C)nc4)sc23)cc1` in this work.

An IC50 [2] of over 30000 nM, an IC50 [3] of over 30000 nM and an IC50 [4] of over 30000 nM were found for `NC(=O)c1cc(-c2ccc(F)cc2)n2nc(COc3ccnc(C(F)(F)F)c3)cc2n1` in this work. It also gave an IC50 [5] of over 30000 nM, an IC50 [6] of over 30000 nM and a clearance [7] of 16.4 mL/min/kg. It also gave a fraction unbound at 4 h [8] of 0.03, a Vd [9] of 3.31 L/kg and a Kp uu [10] of 0.86. It also gave an Emax [11] of 2.4%, a fraction unbound at 4 h [12] of 0.01 and a clearance [13] of 10 mL/min/kg. It also gave a Vd [14] of 6.59 L/kg, a fraction unbound [15] of 0.007 and an IC50 [16] of over 30000 nM. The IC50 [17] was over 30000 nM, the IC50 [1] was 794 nM and the Kp [18] was 4.04. The half-life [19] was 4.28 h and the half-life [20] was 5.53 h.

A Kp uu [10] of under 0.4, an Emax [11] of 13.2% and an IC50 [1] of 891 nM were found for `NC(=O)c1cc(-c2ccc(F)cc2)c2sc(COc3ccc(F)nc3)cc2n1` in this work. For the same molecule, the Kp [18] was over 2.

An Emax [11] of 4.1% and an IC50 [1] of 6610 nM were found for `NC(=O)c1cc(-c2ccc(F)cc2)c2sc(CN3CCCC3)cc2n1` in this work.

An IC50 [21] of over 30000 nM and a Kp [22] of 0.3 were found for `[11CH3]Oc1ccc(-c2cc(C(N)=O)nc3cc(CN4C(=O)CCC4=O)ccc23)c(F)c1` in this work.

An Emax [11] of 2.2% and an IC50 [1] of 1050 nM were found for `NC(=O)c1cc(-c2ccc(F)cc2)c2sc(CN3CCC(F)(F)CC3)cc2n1` in this work.

An Emax [11] of 2.9% and an IC50 [1] of 3890 nM were found for `NC(=O)c1cc(-c2ccc(F)cc2)c2sc(CN3CCOCC3)cc2n1` in this work.

An Emax [11] of 2.3% and an IC50 [1] of 1410 nM were found for `COc1ccc(-c2cc(C(N)=O)nc3cc(CN4CCOCC4)sc23)c(F)c1` in this work.

An Emax [11] of 16.8% and an IC50 [1] of 2000 nM were found for `COc1ccc(OCc2cc3nc(C(N)=O)cc(-c4ccc(F)cc4)c3s2)cn1` in this work.

A fraction unbound at 4 h [8] of 0.03 to 0.12, a Kp uu [10] of 0.4 to 0.6 and an Emax [11] of 19.7% were found for `NC(=O)c1cc(-c2ccc(F)cc2)n2nc(COc3ccnc(Br)c3)cc2n1` in this work. For the same molecule, the fraction unbound at 4 h [12] was 0.03 to 0.12, the fraction unbound [15] was 0.003 to 0.009 and the IC50 [1] was 224 nM. For the same molecule, the Kp [18] was 2.5 to 2.7.

An IC50 [1] of over 10000 nM was found for `NC(=O)c1cc(-c2ccc(F)cc2)c2sc(CN3CCC3)cc2n1` in this work.

An Emax [11] of 2.6% and an IC50 [1] of 2510 nM were found for `COc1ccc(-c2cc(C(N)=O)nc3cc(CN4CCOCC4)sc23)cc1` in this work.

An Emax [11] of 2.4% and an IC50 [1] of 1410 nM were found for `CN(Cc1cc2nc(C(N)=O)cc(-c3ccc(F)cc3)c2s1)C1COC1` in this work.

An IC50 [21] of over 30000 nM, an IC50 [23] of over 30000 nM and an IC50 [24] of over 30000 nM were found for `Cn1ccc(COc2cnc(C(N)=O)cc2-c2ccc(F)cc2)n1` in this work. For the same molecule, the IC50 [25] was over 30000 nM, the IC50 [26] was over 30000 nM and the Kp [22] was 1.9. For the same molecule, the clearance [27] was 118 mL/min/kg, the IC50 [28] was over 30000 nM and the IC50 [29] was over 30000 nM.

An Emax [11] of 2.6% and an IC50 [1] of 1050 nM were found for `NC(=O)c1cc(-c2ccc(F)cc2)n2nc(CCc3ccncc3)cc2n1` in this work.

A fraction unbound at 4 h [8] of 0.02, a Vd [9] of 6.49 L/kg and a Kp uu [10] of 0.49 were found for `COc1ccc(-c2cc(C(N)=O)nc3cc(COc4cnc(C)nc4)sc23)cc1` in this work. The Emax [11] was 2.6%, the Emax ([11]; tested as the 2H-labelled form) was 2.8% and the fraction unbound at 4 h [12] was 0.01. The clearance [13] was 389 mL/min/kg, the fraction unbound [15] was 0.003 and the IC50 [1] was 316 nM. The Kp [18] was 3.41 and the half-life [19] was 0.238 h.

An Emax [11] of 2.3% and an IC50 [1] of 1740 nM were found for `NC(=O)c1cc(-c2ccc(F)cc2)c2sc(COc3ccnc(C(F)(F)F)c3)cc2n1` in this work.

An IC50 [1] of over 10000 nM was found for `NC(=O)c1cc(-c2ccc(F)cc2)n2nc(COc3ccc(C(F)(F)F)nc3)cc2n1` in this work.

An Emax [11] of 6.9% and an IC50 [1] of 589 nM were found for `Cc1ncc(OCc2cc3nc(C(N)=O)cc(-c4ccc(F)cc4)c3s2)cn1` in this work.

An Emax [11] of 2.2% and an IC50 [1] of 1740 nM were found for `NC(=O)c1cc(-c2ccc(F)cc2)c2sc(CN3CCCCC3)cc2n1` in this work.
